We go through seven compounds from paper PMC9669442, “Discovery of novel inhibitors targeting nematode chitinase CeCht1: Virtual screening, biological evaluation, and molecular dynamics simulation” (Frontiers in Chemistry, 2022).

The target of the first assay is T1, CeCht1 (CeCht1-CAD) (Caenorhabditis elegans, UniProt Q11174).
T1 construct: gene cht-1; secreted/overexpressed in Pichia pastoris GS115, purified as in Chen Q. et al. 2021; catalytic residues Asp175, Asp177, Glu179
T1 sequence (Q11174 52-431): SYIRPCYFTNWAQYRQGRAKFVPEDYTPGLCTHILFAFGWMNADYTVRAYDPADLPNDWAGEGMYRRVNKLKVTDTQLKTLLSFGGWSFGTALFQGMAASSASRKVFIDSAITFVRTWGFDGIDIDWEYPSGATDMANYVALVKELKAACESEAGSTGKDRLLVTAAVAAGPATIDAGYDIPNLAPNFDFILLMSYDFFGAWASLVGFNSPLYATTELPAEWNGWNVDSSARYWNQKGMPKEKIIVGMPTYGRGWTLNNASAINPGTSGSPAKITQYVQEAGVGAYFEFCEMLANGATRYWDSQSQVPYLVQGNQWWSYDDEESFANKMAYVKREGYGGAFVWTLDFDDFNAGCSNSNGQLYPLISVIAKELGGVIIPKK
Put plainly: end-point fluorescence assay, 4-methylumbelliferone release. Format: biochemical.
Settings: not given
The text has this:
end-point fluorescence assay, 4-methylumbelliferone release on CeCht1 (CeCht1-CAD)
In the case of `CCn1c(=N)c(C(=O)NCCc2ccc(OC)cc2)cc2c(=O)n3cccc(C)c3nc21` [HAU-4, 1-ethyl-3-((4-methoxyphenethyl)carbamoyl)-10-methyl-5-oxo-1,5-dihydro-2H-dipyrido [1,2-a:2′,3′-d] pyrimidin-2-iminium], the IC50 is 4.2 ± 0.5 µM. Same read-out and setting: the result for `COc1ccc2cc(C(C)NC(=O)Cn3nnnc3CN3CCCC3)ccc2c1` (stereo not shown) [HAU-7] reads 10 ± 2.6 µM.

Still in this assay, the particulars now being: 4 μM 4-MU-(GlcNAc)2, 10 nM enzyme, 20 mM sodium phosphate pH 6.0, 1% DMSO, 25 °C, 20 min.
Regarding `Cc1ccc(OCc2cc(=O)n3c4c(sc3n2)CCCC4)c(NC(=O)CC(C)C)c1` [HAU-1], the “Inhibition rate at 10 μM (%)” value came to 30.4 ± 2.5%. Same read-out and setting: under `Cc1ccc2nc(SCc3noc(CCC(=O)Nc4ccc(C)c(C)c4)n3)[nH]c2c1` [HAU-3] stands 0.4 ± 0.2%; under `COc1ccc(OC)c(-c2nc(C(=O)NCC3CCCO3)cc3c2[nH]c2ccccc23)c1` (stereo not shown) [HAU-9], 39.4 ± 3.3%; under `CCOc1cccc(CNC2CC(C)(C)Cc3c2cnn3-c2ccc(C)cc2)c1O` (stereo not shown) [HAU-11], 34.9 ± 1.6%. Same read-out and setting: the result for `CCOc1ccc2ccccc2c1/C=N/NC(=O)CNC(=O)c1ccc2c(c1)OCCO2` [HAU-15] reads 2.0 ± 0.8%.

For orientation: IC50 means the concentration needed to halve the response being measured. Read a low IC50 as greater potency.
